For 58 molecules, IC50 results are on record in patent US20250026748A1, “N-(5-SUBSTITUTED-[(1,3,4-THIADIAZOLYL) OR (THIAZOLYL)])(SUBSTITUTED)CARBOXAMIDE COMPOUNDS AND USE THEREOF FOR INHIBITING HUMAN POLYMERASE THETA” (Repare Therapeutics Inc., priority 2021, published 2025).

PolQ ATPase enzyme (1-894), sequence (O75417 1-894): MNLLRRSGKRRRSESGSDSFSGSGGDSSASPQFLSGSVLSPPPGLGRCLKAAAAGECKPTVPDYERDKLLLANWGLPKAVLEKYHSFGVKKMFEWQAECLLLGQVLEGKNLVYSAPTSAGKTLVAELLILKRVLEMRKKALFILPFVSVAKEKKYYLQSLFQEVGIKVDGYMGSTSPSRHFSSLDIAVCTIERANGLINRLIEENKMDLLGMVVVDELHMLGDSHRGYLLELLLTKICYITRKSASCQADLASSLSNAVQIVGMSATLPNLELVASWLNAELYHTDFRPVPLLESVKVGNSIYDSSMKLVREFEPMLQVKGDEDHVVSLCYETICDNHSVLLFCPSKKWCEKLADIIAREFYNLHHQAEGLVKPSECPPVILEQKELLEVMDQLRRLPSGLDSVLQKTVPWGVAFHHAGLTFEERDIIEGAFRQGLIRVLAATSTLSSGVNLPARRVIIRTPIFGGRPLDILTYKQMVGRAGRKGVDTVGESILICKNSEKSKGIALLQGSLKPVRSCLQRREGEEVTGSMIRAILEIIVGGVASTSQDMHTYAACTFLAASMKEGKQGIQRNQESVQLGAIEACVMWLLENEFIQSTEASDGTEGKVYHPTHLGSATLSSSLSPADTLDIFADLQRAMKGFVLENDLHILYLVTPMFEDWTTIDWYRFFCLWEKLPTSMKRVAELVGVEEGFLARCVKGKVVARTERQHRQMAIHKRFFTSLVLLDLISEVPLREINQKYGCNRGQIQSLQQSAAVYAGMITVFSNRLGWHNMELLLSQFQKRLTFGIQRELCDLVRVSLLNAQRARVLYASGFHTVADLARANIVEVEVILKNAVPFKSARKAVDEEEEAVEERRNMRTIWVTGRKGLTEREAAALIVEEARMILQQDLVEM

In this assay the target is PolQ ATPase enzyme (1-894) (Homo sapiens (Human), UniProt O75417). Kind of assay: Polθ ATPase enzymatic assay (0.5 nM enzyme concentration), ADP-Glo. The assay is classed as biochemical. Conditions: average IC50; 0.5 nM PolQ ATPase enzyme (1-894). The method in brief:
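Enzyme (0.5 nM) pre-incubated 15 min at rt with 10-point inhibitor series in 50 mM Tris pH 7.5, 10% glycerol, 5 mM DTT, 10 mM MgCl2, 0.1 mg/ml BSA; reaction started with 20 nM fork DNA and 100 μM ATP, run 180 min at rt. ADP-Glo luminescence; IC50 from 4-parameter variable-slope fit.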
(ADP-Glo first removes unused ATP, then detects ADP through luciferase.)
As to `Cc1nnc(Cn2cc(-c3cc(C(F)F)ncc3C)c(C(=O)Nc3ncc(C#CC4CC4)s3)cc2=O)o1` [Compound 126], the half-inhibitory concentration (IC50) – broadly, the concentration that gives 50% inhibition – is < 0.25 nM.

The molecule `COc1ccc(C(F)(F)F)cc1-c1cn2ncnc2cc1C(=O)Nc1nnc(C#Cc2cc(C)[nH]n2)s1` [Compound 86] displayed an IC50 of 1.6 nM.

Take `COc1cnc(C(F)F)cc1-c1cc(-n2cnc(C)c(C)c2=O)ncc1C(=O)Nc1nnc(C#CC2CC2)s1` [Compound 451]: the concentration for half-maximal inhibition (IC50) is < 0.25 nM.

On to `COc1cnc(C(F)F)cc1-c1cc(-n2cc(F)c(C)cc2=O)ncc1C(=O)Nc1nnc(C#CC2CC2)s1` [Compound 414], for which the IC50 was < 0.25 nM.

Molecule `COc1cnc(C(F)F)cc1-c1cc(N2CCCC2=O)ncc1C(=O)Nc1ncc(C#CC2CC2)s1` [Compound 191] yielded an IC50 of 15 nM.

In the case of `COc1cnc(C(F)F)cc1-c1nc(-c2nnc(C)o2)ccc1C(=O)Nc1nnc(C#CC2CC2)s1` [Compound 391], the IC50 is > 100 nM.

In the case of `COc1cnc(C(F)F)cc1-c1cc(N2CCCC2=O)ncc1C(=O)Nc1nnc(C#CC2CC2)s1` [Compound 285], half-maximal inhibition (IC50) was put at 4.3 nM.

Regarding `COc1cnc(C(F)F)cc1-c1cn(C)c(=O)cc1C(=O)Nc1nnc(C#CC2CC23CC3)s1` (stereo not shown) [Compound 49], 0.75 nM corresponded to half-maximal inhibition (IC50).

Regarding `Cc1cnn(-c2cc(-c3cc(C(F)F)ncc3Cl)c(C(=O)Nc3nnc(C#CC4CC4)s3)cn2)c(=O)c1` [Compound 470], the IC50 was 0.0492 nM.

In the case of `Cc1nnc(-n2cc(-c3cc(C(F)(F)F)ccc3Cl)c(C(=O)Nc3ncc(C#CC4CC4)s3)cc2=O)o1` [Compound 464], the IC50 is < 0.25 nM.

In turn, `COc1cnc(C2CC2)cc1-c1cnccc1C(=O)Nc1nnc(C#CC2CC2)s1` [Compound 79] registered an IC50 of 1.21 nM.

Take `COCCn1ccc(-c2cc(-c3cc(C(F)F)ncc3OC)c(C(=O)Nc3nnc(C#CC4CC4)s3)cn2)n1` [Compound 427]: the IC50 was found to be 0.27 nM.

`COc1cnc(C(F)F)cc1-c1cc(-c2ccn(CS(C)(=O)=O)n2)ccc1C(=O)Nc1nnc(C#CC2CC2)s1` [Compound 124, N-(5-(cyclopropylethynyl)-1,3,4-thiadiazol-2-yl)-2-(2-(difluoromethyl)-5-methoxypyridin-4-yl)-4-(1-((methylsulfonyl)methyl)-1H-pyrazol-3-yl)benzamide]: the half-inhibitory concentration (IC50) is < 0.25 nM.

Molecule `COc1cnc(C(F)F)cc1-c1cc(C#N)ncc1C(=O)Nc1nnc(C#CC2CC2)s1` [Compound 313] returned an IC50 of 0.87 nM.

Take `COc1cnc(C(F)F)cc1-c1cc(-c2cnn(C(F)F)c2)ncc1C(=O)Nc1nnc(C#CC2CC2)s1` [Compound 349]: the IC50 is < 0.25 nM.

For the molecule `COc1cnc(C(F)F)cc1-c1cc(-n2ccccc2=O)ncc1C(=O)Nc1nnc(C#CC2CC2)s1` [Compound 122, N-(5-(cyclopropylethynyl)-1,3,4-thiadiazol-2-yl)-2″-(difluoromethyl)-5″-methoxy-2-oxo-2H-[1,2′:4′,4″-terpyridine]-5′-carboxamide], the concentration for half-maximal inhibition (IC50) was < 0.25 nM.

Molecule `[2H]C([2H])([2H])N(C(=O)C1CC(C)(O)C1)c1ccc(C(=O)Nc2nnc(C#CC3CC3)s2)c(-c2cc(C(F)F)ncc2OC)c1` (stereo not shown) [Compound 224] had a half-inhibitory concentration (IC50) of 0.35 nM.

The molecule `COc1cnc(C(F)F)cc1-c1cc(-c2nnc(C)o2)ccc1C(=O)Nc1ncc(C#CC2CC2)s1` [Compound 120] came in with an IC50 of 2.5 nM.

As for `COc1cnc(C(F)F)cc1-c1cc(N2C(=O)[C@@H]3CC[C@H]2C3)ncc1C(=O)Nc1nnc(C#CC2CC2)s1` [Compound 368], inhibition was half-maximal at 7.1 nM (IC50).

In the case of `COc1cnc(C(F)F)cc1-c1cc(CC#N)ncc1C(=O)Nc1nnc(C#Cc2ccc(Cl)cc2)s1` [Compound 178], the IC50 is < 0.25 nM.

For `COc1cnc(Cl)cc1-c1cnccc1C(=O)Nc1nnc([C@@H]2C[C@H]2c2ccc(C#N)c(C)c2)s1` [Compound 287], half-maximal inhibition (IC50) was put at 0.93 nM.

`COc1cnc(C(F)F)cc1-c1cnccc1C(=O)Nc1nnc([C@@H]2C[C@H]2c2ccc(C#N)cc2)s1` [Compound 274] came in with an IC50 of 0.51 nM.

Turning to `COc1cnc(Cl)cc1-c1cn(C)c(=O)cc1C(=O)Nc1nnc(C#Cc2cc(C)[nH]n2)s1` [Compound 103], inhibition was half-maximal at 1.2 nM (IC50).

Turning to `C#C[C@@H]1CC1c1nnc(NC(=O)c2cnc(-c3ccn(C)n3)cc2-c2cc(C(F)F)ncc2OC)s1` (stereo partly shown) [Compound 154], the IC50 is < 0.25 nM.

On to `COc1cnc(C(F)F)cc1-c1cc(N2CCOCC2=O)ccc1C(=O)Nc1ncc(C#CC2CC2)s1` [Compound 213], for which the half-maximal inhibitory concentration (IC50) was < 0.25 nM.

In the case of `COc1cnc(C(F)F)cc1-c1cc(-n2cccc(C(F)(F)F)c2=O)ncc1C(=O)Nc1nnc(C#CC2CC2)s1` [Compound 456], the 50% inhibitory concentration (IC50) was < 0.25 nM.

The molecule `COc1cnc(C(F)F)cc1-c1cc(-c2nnc(NC(C)=O)o2)ccc1C(=O)Nc1nnc(C#CC2CC2)s1` [Compound 418] gave an IC50 of 1.6 nM.

As to `COc1cnc(C(F)F)cc1-c1cc(-n2cccc(Cl)c2=O)ncc1C(=O)Nc1nnc(C#CC2CC2)s1` [Compound 455], the IC50 was < 0.25 nM.

The molecule `COc1cnc(C(F)F)cc1-c1cc(-c2cc(C#N)n(C)n2)ncc1C(=O)Nc1nnc(C#CC2CC2)s1` [Compound 371] returned a half-inhibitory concentration (IC50) of 8.1 nM.

Take `O=C(Nc1nnc(C#CC2CC2)s1)c1ccncc1-c1cc(Cl)ncc1Cl` [Compound 44]: the IC50 turned out to be 0.31 nM.

Regarding `COc1ccc(C(F)(F)F)cc1-c1cn(CC(=O)N(C)C)c(=O)cc1C(=O)Nc1nnc(C#CC2CC2)s1` [Compound 75], the half-inhibitory concentration (IC50) was < 0.25 nM.

For `COc1cnc(Cl)nc1-c1cc(CC#N)ccc1C(=O)Nc1nnc(C#CC2CC2)s1` [Compound 407], the IC50 is < 0.25 nM.

Turning to `COc1cnc(C(F)F)cc1-c1cc(N(C)C(=O)C2CC2)ccc1C(=O)Nc1nnc(C#CC2CC2)s1` [Compound 222], the IC50 is < 0.25 nM.

In the case of `COc1cnc(Cl)cc1-c1cnccc1C(=O)Nc1nnc(C#CC2CC23CC3)s1` (stereo not shown) [Compound 100], the IC50 was < 0.25 nM.

In the case of `COc1cnc(C(F)F)cc1-c1cc(-c2cncn2C)ncc1C(=O)Nc1nnc(C#CC2CC2)s1` [Compound 405], the 50% inhibitory concentration (IC50) was < 0.25 nM.

`COc1ccc(C(F)(F)F)cc1-c1cn2ncnc2cc1C(=O)Nc1nnc(C#CC2CC2)s1` [Compound 345]: half-maximal inhibition (IC50) was put at 3.7 nM.

`COc1cnc(C(F)F)cc1-c1cc(-c2cn(C)cn2)ncc1C(=O)Nc1nnc(C#CC2CC2)s1` [Compound 187] gave a half-inhibitory concentration (IC50) of 0.91 nM.

In the case of `COc1cnc(C(F)F)cc1-c1cc(-n2cccc(OC)c2=O)ncc1C(=O)Nc1nnc(C#CC2CC2)s1` [Compound 438], the IC50 is < 0.25 nM.

Take `COc1ccc(C(F)(F)F)cc1-c1cn(CC(N)=O)c(=O)cc1C(=O)Nc1nnc(C#CC2CC2)s1` [Compound 95]: the IC50 is < 0.25 nM.

With `COc1cnc(C(F)F)cc1-c1cc(C#CC2CCOC2)ncc1C(=O)Nc1ncc(C#CC2CC2)s1` (stereo not shown) [Compound 223], inhibition was half-maximal at 0.29 nM (IC50).

`COc1cnc(C(F)F)cc1-c1cc(-c2nnc(C)o2)ccc1C(=O)Nc1nc(C#N)c(C#CC2CC2)s1` [Compound 376]: it took 3 nM to reach half-maximal inhibition (IC50).

On to `COc1cnc(C(F)F)cc1-c1cc(CC(=O)N(C)C)ncc1C(=O)Nc1ncc(C#CC2CC2)s1` [Compound 200], for which the IC50 is < 0.25 nM.

The molecule `COc1ccc(C(F)(F)F)cc1-c1cn(C)c(=O)cc1C(=O)Nc1nnc(C#CC2CC23CC3)s1` (stereo not shown) [Compound 60] registered a half-inhibitory concentration (IC50) of 1.1 nM.

With `COc1cnc(C(F)F)cc1-c1cc(-c2ccn(C)c2)ncc1C(=O)Nc1nnc(C#CC2CC2)s1` [Compound 411], the concentration for half-maximal inhibition (IC50) came to 0.37 nM.

For `NC(=O)Cn1cc(-c2cc(Cl)ncc2OC(F)F)c(C(=O)Nc2nnc(C#CC3CC3)s2)cc1=O` [Compound 76], the IC50 is < 0.25 nM.

As for `Cc1nc(Cn2cc(-c3cc(C(F)(F)F)ccc3Cl)c(C(=O)Nc3nnc(C#CC4CC4)s3)cc2=O)cs1` [Compound 331], the half-inhibitory concentration (IC50) stood at 24 nM.

The molecule `COc1cnc(Cl)cc1-c1cc(N2CCC(O)C2=O)ccc1C(=O)Nc1nnc(C#CC2CC2)s1` (stereo not shown) [Compound 277] gave an IC50 of 3.2 nM.

`COc1cnc(C(F)F)cc1-c1cc(-n2cncn2)ncc1C(=O)Nc1nnc(C#CC2CC2)s1` [Compound 263]: the IC50 is < 0.25 nM.

Regarding `COc1cnc(C(F)F)cc1-c1cc(N(C)C(=O)C2(C)COC2)ccc1C(=O)Nc1nnc(C#CC2CC2)s1` [Compound 220], 0.78 nM corresponded to half-maximal inhibition (IC50).

On to `COc1cnc(C(F)F)cc1-c1cc(C#CCN2CCOCC2)ncc1C(=O)Nc1nnc(C#CC2CC2)s1` [Compound 218], for which the IC50 turned out to be 0.25 nM.

Consider `COc1cnc(C(F)F)cc1-c1cc(N2CC3(COC3)CC2=O)ncc1C(=O)Nc1nnc(C#CC2CC2)s1` [Compound 359], for which half-maximal inhibition (IC50) required 1.7 nM.

In the case of `COc1ccc(C(F)(F)F)cc1-c1cc(-c2cnn(C)c2)ncc1C(=O)Nc1nnc(C#CC2CC2)s1` [Compound 296], the IC50 stood at 1.6 nM.

Molecule `COc1ccc(Cl)nc1-c1cnccc1C(=O)Nc1nnc(C#CC2CC2)s1` [Compound 339] had a concentration for half-maximal inhibition (IC50) of 3.4 nM.

For the molecule `COc1cnc(Cl)cc1-c1cc(CC(=O)N(C)C)ccc1C(=O)Nc1nnc(C#CC2CC2)s1` [Compound 35, 2-(2-chloro-5-methoxypyridin-4-yl)-N-(5-(cyclopropylethynyl)-1,3,4-thiadiazol-2-yl)-4-(2-(dimethylamino)-2-oxoethyl)benzamide], the concentration for half-maximal inhibition (IC50) is < 0.25 nM.

`COc1cnc(C(F)F)cc1-c1cc(-c2ccn(C)n2)cnc1C(=O)Nc1ncc(C#CC2CC2)s1` [Compound 139, N-(5-(cyclopropylethynyl)thiazol-2-yl)-2′-(difluoromethyl)-5′-methoxy-5-(1-methyl-1H-pyrazol-3-yl)-[3,4′-bipyridine]-2-carboxamide] returned an IC50 of 61 nM.

The molecule `C#C[C@H]1CC1c1nnc(NC(=O)c2ccc(-c3nnc(C)o3)cc2-c2cc(C(F)F)ncc2OC)s1` (stereo partly shown) [Compound 373] gave an IC50 of 4.6 nM.

On to `COc1cnc(C(F)F)cc1-c1cc(OC[C@@H]2CCOC2)ncc1C(=O)Nc1nnc(C#CC2CC2)s1` [Compound 148], for which it took 0.93 nM to reach half-maximal inhibition (IC50).

On to `COc1cnc(C(F)F)cc1-c1cnccc1C(=O)Nc1nnc(C2C[C@H]2c2ccc(C#N)nc2)s1` (stereo partly shown) [Compound 266], for which the IC50 was 4.4 nM.
